Test results from US20040249122A1, “Cationic, amphipathic beta-sheet peptides and uses thereof” (priority 2003, published 2004).
≈ marks a conversion by molar mass, not a printed value. Like-named read-outs stand apart in the source and are kept apart here. Where a SMILES comes first, the peptide text is derived from it. Where no end group is shown, it is not given here. The star is where a group is joined. Octanoyl = CCCCCCCC(=O)*

What was measured:
[1] = tested on: Staphylococcus aureus (ATCC 29213); format: cell-based
Protocol: (§1) Antimicrobial and Hemolytic Assays. Antimicrobial susceptibility testing against Staphylococcus aureus (ATCC 29213), Escherichia coli (ATCC 25922), and Pseudomonas aeruginosa (ATCC 27853) was performed using a modification of the National Committee for Clinical Laboratory Standards microdilution broth assay (22). Mueller-Hinton broth (BBL) was used for diluting the peptide stock solution and for diluting the bacterial inoculum. The inoculum was prepared from mid-logarithmic phase cultures. […] The final concentration of peptide solution ranged-from 0.25 to 256 μg/mL in two-fold dilutions. The final concentration of bacteria in the wells was 5×10^5 CFU/mL. Peptides were tested in duplicate. In addition to the test peptide, three standard peptides and a non-treated growth control were included to validate the assay. The microtiter plates were incubated overnight at 37° C. and the absorbance was measured at 600 nm. […] After incubation at 37° C. for 30 min, the suspension was centrifuged at 10,000×g for 10 min and the absorbance at 400 nm was measured.

[2] = tested on: Escherichia coli (ATCC 25922); format: cell-based
Protocol: as §1

[3] = tested on: Pseudomonas aeruginosa (ATCC 27853); format: cell-based
Protocol: as §1

[4] = tested on: E. coli, S. aureus, and P. aeruginosa; format: cell-based
Protocol: Antimicrobial and Hemolytic Assays. Antimicrobial susceptibility testing against Staphylococcus aureus (ATCC 29213), Escherichia coli (ATCC 25922), and Pseudomonas aeruginosa (ATCC 27853) was performed using a modification of the National Committee for Clinical Laboratory Standards microdilution broth assay (22). Mueller-Hinton broth (BBL) was used for diluting the peptide stock solution and for diluting the bacterial inoculum. The inoculum was prepared from mid-logarithmic phase cultures. Microtiter plate wells received aliquots-of 100 μL each of the inoculum and peptide dilution. The final concentration of peptide solution ranged-from 0.25 to 256 μg/mL in two-fold dilutions. The final concentration of bacteria in the wells was 5×10^5 CFU/mL. Peptides were tested in duplicate. In addition to the test peptide, three standard peptides and a non-treated growth control were included to validate the assay. The microtiter plates were incubated overnight at 37° C. and the absorbance was measured at 600 nm. […] Hemolysis at peptide concentrations of 500 μg/mL was determined using a 5% suspension of freshly drawn human erythrocytes, which had been washed twice in phosphate buffered saline. After incubation at 37° C. for 30 min, the suspension was centrifuged at 10,000×g for 10 min and the absorbance at 400 nm was measured. Complete hemolysis was determined by adding 0.2% Triton X-100 in place of the peptide.

[5] = Peptide-induced leakage from calcein-loaded LUV
Protocol: Peptide-Induced Leakage from Calcein-Loaded LUV. The ability of the peptides to release calcein (MW 623) from LUV of varying lipid composition was compared. LUV were prepared as above, except that-the buffer consisted of 50 mM HEPES, 100 mM NaCl, 0.3 mM EDTA, 80 mM calcein, pH 7.4. Calcein-loaded vesicles were separated from free calcein by size-exclusion chromatography using a Sephadex G-50 column and calcein-free buffer. Calcein leakage was monitored using a Perkin-Elmer LS-500 luminescence spectrometer by measuring the time-dependent increase in fluorescence of calcein (excitation=490 nm, emission=520 nm). LUV containing 8 nmoles of lipid were added to 1.5 mL of buffer in a stirred cuvet at 25° C. An aliquot of peptide was added to achieve the desired lipid-to-peptide ratio (256 to 8). Complete leakage was determined by the addition of 20 μL of 10% Triton X-100. Each value represents at least nine different measurements using at least three different LUV preparations.

Compound	MIC Staph. aureus ([1]; ATCC 29213)	MIC E. coli ([2]; ATCC 25922)	MIC Pseud. aerug ([3]; ATCC 27853)	antimicrobial activity (in words) [4]	also measured
CC(C)C[C@H](NC(=O)CNC(=O)[C@H](C)NC(=O)[C@H](CC(C)C)NC(=O)[C@H](CCCCN)NC(=O)[C@H](CCCCN)NC(=O)[C@H](C)NC(=O)[C@H](CC(C)C)NC(=O)CNC(=O)[C@H](C)NC(=O)[C@H](Cc1c[nH]c2ccccc12)NC(=O)[C@H](CCCCN)NC(=O)[C@H](CCCCN)NC(=O)[C@H](C)NC(=O)[C@H](CC(C)C)NC(=O)CNC(=O)[C@H](C)NC(=O)[C@H](CC(C)C)NC(=O)[C@H](CCCCN)NC(=O)[C@@H](N)CCCCN)C(=O)N[C@@H](C)C(N)=O [1,2-Hept, KKLAGLAKKWAGLAKKLAGLA-NH2] (H-KKLAGLAKKWAGLAKKLAGLA-NH2; N-terminus assumed)	16 µg/mL (≈ 7.49 µM)	8 µg/mL (≈ 3.75 µM)	16 µg/mL (≈ 7.49 µM)	relatively low MIC values	–
CC[C@H](C)[C@H](NC(=O)[C@H](C)NC(=O)CNC(=O)[C@@H](NC(=O)[C@H](CCCCN)NC(=O)[C@H](CCCCN)NC(=O)[C@@H](NC(=O)[C@H](C)NC(=O)CNC(=O)[C@H](Cc1c[nH]c2ccccc12)NC(=O)[C@H](CCCCN)NC(=O)[C@H](CCCCN)NC(=O)[C@@H](NC(=O)[C@H](C)NC(=O)CNC(=O)[C@@H](NC(=O)[C@H](CCCCN)NC(=O)[C@@H](N)CCCCN)[C@@H](C)CC)[C@@H](C)CC)[C@@H](C)CC)[C@@H](C)CC)C(N)=O [1,2-Hex, K K I G A I K K W G A J K K I G A I-NH2] (H-KKIGAIKKWGAIKKIGAI-NH2; N-terminus assumed)	>256 µg/mL	128 µg/mL (≈ 66.6 µM)	128 µg/mL (≈ 66.6 µM)	–	–
CC(C)C[C@H](NC(=O)CNC(=O)[C@H](C)NC(=O)[C@H](CCCCN)NC(=O)[C@H](CC(C)C)NC(=O)[C@H](CCCCN)NC(=O)[C@H](C)NC(=O)[C@H](CC(C)C)NC(=O)CNC(=O)[C@H](C)NC(=O)[C@H](CCCCN)NC(=O)[C@H](Cc1c[nH]c2ccccc12)NC(=O)[C@H](CCCCN)NC(=O)[C@H](C)NC(=O)[C@H](CC(C)C)NC(=O)CNC(=O)[C@H](C)NC(=O)[C@H](CCCCN)NC(=O)[C@H](CC(C)C)NC(=O)[C@@H](N)CCCCN)C(=O)N[C@@H](C)C(N)=O [1,3-Hept, KLKAGLAKWKAGLAKLKAGLA-NH2] (H-KLKAGLAKWKAGLAKLKAGLA-NH2; N-terminus assumed)	256 µg/mL (≈ 120 µM)	32 µg/mL (≈ 15 µM)	>256 µg/mL	slightly active	–
CC[C@H](C)[C@H](NC(=O)[C@H](C)NC(=O)CNC(=O)[C@H](CCCCN)NC(=O)[C@@H](NC(=O)[C@H](CCCCN)NC(=O)[C@@H](NC(=O)[C@H](C)NC(=O)CNC(=O)[C@H](CCCCN)NC(=O)[C@H](Cc1c[nH]c2ccccc12)NC(=O)[C@H](CCCCN)NC(=O)[C@@H](NC(=O)[C@H](C)NC(=O)CNC(=O)[C@H](CCCCN)NC(=O)[C@@H](NC(=O)[C@@H](N)CCCCN)[C@@H](C)CC)[C@@H](C)CC)[C@@H](C)CC)[C@@H](C)CC)C(N)=O [1,3-Hex, K I K G A I K W K G A I K I K G A I-NH2] (H-KIKGAIKWKGAIKIKGAI-NH2; N-terminus assumed)	32 µg/mL (≈ 16.6 µM)	8 µg/mL (≈ 4.16 µM)	16 µg/mL (≈ 8.32 µM)	appreciable antimicrobial activity	–
CC[C@H](C)[C@H](NC(=O)[C@H](C)NC(=O)[C@H](CCCCN)NC(=O)CNC(=O)[C@@H](NC(=O)[C@H](CCCCN)NC(=O)[C@@H](NC(=O)[C@H](C)NC(=O)[C@H](CCCCN)NC(=O)CNC(=O)[C@H](Cc1c[nH]c2ccccc12)NC(=O)[C@H](CCCCN)NC(=O)[C@@H](NC(=O)[C@H](C)NC(=O)[C@H](CCCCN)NC(=O)CNC(=O)[C@@H](NC(=O)[C@@H](N)CCCCN)[C@@H](C)CC)[C@@H](C)CC)[C@@H](C)CC)[C@@H](C)CC)C(N)=O [1,4-Hex, K I G K A I K W G K A I K I G K A I-NH2] (H-KIGKAIKWGKAIKIGKAI-NH2; N-terminus assumed)	>256 µg/mL	32 µg/mL (≈ 16.6 µM)	64 µg/mL (≈ 33.3 µM)	–	–
CC[C@H](C)[C@H](NC(=O)[C@H](CCCCN)NC(=O)[C@H](C)NC(=O)CNC(=O)[C@@H](NC(=O)[C@H](CCCCN)NC(=O)[C@@H](NC(=O)[C@H](CCCCN)NC(=O)[C@H](C)NC(=O)CNC(=O)[C@H](Cc1c[nH]c2ccccc12)NC(=O)[C@H](CCCCN)NC(=O)[C@@H](NC(=O)[C@H](CCCCN)NC(=O)[C@H](C)NC(=O)CNC(=O)[C@@H](NC(=O)[C@@H](N)CCCCN)[C@@H](C)CC)[C@@H](C)CC)[C@@H](C)CC)[C@@H](C)CC)C(N)=O [1,5-Hex, K I G A K I K W G A K I K I G A K I-NH2] (H-KIGAKIKWGAKIKIGAKI-NH2; N-terminus assumed)	–	–	–	appreciable antimicrobial activity	–
CC[C@H](C)[C@H](NC(=O)[C@H](C)NC(=O)CNC(=O)[C@@H](NC(=O)[C@H](CCCCN)NC(=O)[C@H](CCCCN)NC(=O)[C@@H](NC(=O)[C@H](C)NC(=O)CNC(=O)[C@H](Cc1c[nH]c2ccccc12)NC(=O)[C@H](CCCCN)NC(=O)[C@H](CCCCN)NC(=O)[C@@H](NC(=O)[C@H](C)NC(=O)CNC(=O)[C@@H](NC(=O)[C@@H](N)CCCCN)[C@@H](C)CC)[C@@H](C)CC)[C@@H](C)CC)[C@@H](C)CC)C(=O)N[C@@H](CCCCN)C(N)=O [1,6-Hex, K I G A I K K W G A I K K I G A I K-NH2] (H-KIGAIKKWGAIKKIGAIK-NH2; N-terminus assumed)	>256 µg/mL	>256 µg/mL	>256 µg/mL	–	–
CCCCCCCC(=O)N[C@@H](CCCCN)C(=O)N[C@H](C(=O)NCC(=O)N[C@@H](C)C(=O)N[C@@H](CCCCN)C(=O)N[C@H](C(=O)N[C@@H](CCCCN)C(=O)N[C@@H](Cc1c[nH]c2ccccc12)C(=O)NCC(=O)N[C@@H](C)C(=O)N[C@@H](CCCCN)C(=O)N[C@H](C(=O)N[C@@H](CCCCN)C(=O)N[C@H](C(=O)NCC(=O)N[C@@H](C)C(=O)N[C@@H](CCCCN)C(=O)N[C@H](C(N)=O)[C@@H](C)CC)[C@@H](C)CC)[C@@H](C)CC)[C@@H](C)CC)[C@@H](C)CC [Oct-KIGAKI-18A, Oct- K I G A K I K W G A K I K I G A K I-NH2] (Octanoyl-KIGAKIKWGAKIKIGAKI-NH2)	–	–	–	–	MIC Staph. aureus ([1]; Table 103): 4 µg/mL (≈ 1.95 µM); MIC E. coli ([2]; Table 103): 8 µg/mL (≈ 3.9 µM); MIC Pseud. aerug ([3]; Table 103): 8 µg/mL (≈ 3.9 µM)
CCCCCCCC(=O)N[C@@H](CCCCN)C(=O)N[C@H](C(=O)NCC(=O)N[C@@H](C)C(=O)N[C@@H](CCCCN)C(=O)N[C@H](C(=O)N[C@@H](CCCCN)C(=O)N[C@H](C(=O)NCC(=O)N[C@@H](C)C(=O)N[C@@H](CCCCN)C(=O)N[C@H](C(=O)N[C@@H](CCCCN)C(=O)N[C@@H](Cc1c[nH]c2ccccc12)C(=O)NCC(=O)N[C@@H](C)C(=O)N[C@@H](CCCCN)C(=O)N[C@H](C(N)=O)[C@@H](C)CC)[C@@H](C)CC)[C@@H](C)CC)[C@@H](C)CC)[C@@H](C)CC [Oct-KIGAKI-18B, Oct- K I G A K I K I G A K I K W G A K I-NH2] (Octanoyl-KIGAKIKIGAKIKWGAKI-NH2)	–	–	–	–	MIC Staph. aureus ([1]; Table 103): 8 µg/mL (≈ 3.9 µM); MIC E. coli ([2]; Table 103): 8 µg/mL (≈ 3.9 µM); MIC Pseud. aerug ([3]; Table 103): 8 µg/mL (≈ 3.9 µM)
K I G A K S K H G A K I K I G A K I-NH2 (KIGAKSKHGAKIKIGAKI-NH2) [SH-KIGAKI]	–	–	–	–	calcein leakage from LUV (in words) ([5]; POPC (PC) LUV): low lytic activity; calcein leakage from LUV (in words) ([5]; POPC/POPG LUV, all ratios (1:1 to 4:1)): no ability to induce leakage; calcein leakage from LUV (in words) ([5]; any LUVs containing PE/PG): no ability to induce leakage
